The source of these data is patent publication US7446195B2, “High affinity thiophene-based and furan-based kinase ligands” (Schering Corporation, priority 2005, dated 2008).

For this test, the target named is CDK-2 (Homo sapiens, UniProt P24941). Kind of test: CDK-2 inhibition (Table 1; fluorescence polarization displacement assay). The conditions noted are these: inhibitory effectiveness toward CDK-2. Format: binding. As for the experimental part:
The affinity of lead inhibitors binding to CDK-2 and CDK-2/cyclin A were determined by measuring a Ki value using a fluorescence polarization displacement assay. The deacetylated form of compound BMS-250595 was reacted with Alexa Fluor 647 to generate a compound (BMS-Alexa Fluor647) that bound to both proteins and provided a signal for fluorescence polarization displacement. Binding assays were performed in a 384 well Costar NBS coated plate. A total volume of […] contained concentrations of CDK-2 or CDK-2/cyclin A at […], respectively. The concentration of BMS-Alexa Fluor647 was 50 nM. Serial dilutions of compounds were added to 12 wells. The final buffer concentration was 10 mM Hepes, pH 7.5, 150 mM NaCl, and 1 mM DTT. Samples were incubated at room temperature for 15 minutes and then read in an Analyst HT instrument using an excitation and emission wavelength of 580 and 680 nm, respectively. The […] curve fitting tool described by Zhang et al., 2004 (Zhang R., Mayhood T., Lipari P., Wang Y., Durkin D., Syto R., Gesell J., McNemar C., and Windsor W., Analytical Biochemistry 331 (2004) 138-146)
(In general: Polarisation of emitted light reports the rotation of a fluorescent probe.)
Consider `COc1ccc(NC(=O)c2ccc(C(=O)Nc3ccc(-c4nnn[nH]4)cc3)s2)c(C)c1` [Compound 178], for which the IC50 is ≥ 40 µM.
For `COc1ccc(C(=O)Nc2ccc(C(=O)Nc3ccc(-n4cncn4)cc3)o2)cc1` [Compound 181], the IC50 was ≥ 40 µM.
In the case of `COc1ccc(NC(=O)c2ccc(C(=O)Nc3ccc(-n4cncn4)c(F)c3)s2)c(C)c1` [Compound 17], the IC50 is ≤ 1 µM.
In the case of `CN1CCN(c2ccccc2NC(=O)c2ccc(C(=O)Nc3ccc(-n4cncn4)c(F)c3)s2)CC1` [Compound 209], the IC50 is ≥ 40 µM.
Next, `Cn1nc(-c2ccccc2)cc1NC(=O)c1ccc(C(=O)Nc2ccc(-n3cncn3)cc2)s1` [Compound 66]: 1 to 40 µM.
As for `Cc1cc(CN2CCN(C)CC2)ccc1NC(=O)c1ccc(C(=O)Nc2ccc(-n3cncn3)c(F)c2)s1` [Compound 23], the figure is ≤ 1 µM.
Take `COc1ccccc1NC(=O)c1ccc(C(=O)Nc2ccc(-n3cncn3)cc2)s1` [Compound 110]: the IC50 is ≥ 40 µM.
In turn, `O=C(Nc1ccc(-n2cncn2)c(F)c1)c1ccc(C(=O)Nc2ccccc2C(F)(F)F)s1` [Compound 46] had an IC50 of 1 to 40 µM.
Consider `COc1ccc(NC(=O)c2ccc(C(=O)Nc3ccc(F)cc3-n3cncn3)s2)c(C)c1` [Compound 65], for which the IC50 is 1 to 40 µM.
Regarding `Cc1cc(N2CCOCC2)ccc1NC(=O)c1ccc(C(=O)Nc2ccc(-n3cncn3)cc2)s1` [Compound 3], the IC50 is ≤ 1 µM.
In the case of `Cc1ccsc1CNC(=O)c1ccc(C(=O)Nc2ccc(-n3cncn3)cc2)s1` [Compound 55], the IC50 fell in the range of 1 to 40 µM.
As for `O=C(Nc1ccc(-n2cncn2)cc1)c1ccc(C(=O)Nc2ccc3ncsc3c2)s1` [Compound 161], the IC50 was ≥ 40 µM.
As for `O=C(NCc1cccnc1)c1ccc(C(=O)Nc2ccc(-n3cncn3)cc2)s1` [Compound 99], the figure is ≥ 40 µM; as for `Cc1ccccc1NC(=O)c1ccc(C(=O)Nc2ccc(-n3cncn3)cc2)o1` [Compound 31], ≤ 1 µM.
For `COc1ccc(NC(=O)c2ccc(C(=O)Nc3ccc4c(c3)OCO4)s2)c(C)c1` [Compound 130], the IC50 was ≥ 40 µM.
Take `O=C(Nc1ccc(-n2cncn2)c(F)c1)c1ccc(C(=O)Nc2ccccc2OCc2ccncc2)s1` [Compound 202]: the IC50 was ≥ 40 µM.
As for `CN1CCC(NC(=O)c2ccc(C(=O)Nc3ccc(-n4cncn4)cc3)s2)CC1` [Compound 141], the IC50 is ≥ 40 µM.
As for `CNCc1ccc(NC(=O)c2ccc(C(=O)Nc3ccc(-n4cncn4)cc3)s2)c(C)c1` [Compound 51], the figure is 1 to 40 µM; as for `COc1ccc(C(=O)Nc2ccc(C(=O)N3CCC(c4ccncc4)C3)s2)c(C)c1` (stereo not shown) [Compound 189], ≥ 40 µM.
`O=C(Nc1ccc(-n2cncn2)c(F)c1)c1ccc(C(=O)Nc2ccccc2COc2ccccc2)s1` [Compound 204]: the half-inhibitory concentration (IC50) is ≥ 40 µM.
With `O=C(Nc1ccc(-n2cncn2)c(F)c1)c1ccc(C(=O)NC2CCCCC2)o1` [Compound 27], the IC50 was ≤ 1 µM.
For the compound `O=C(Nc1ccc(-n2cncn2)c(F)c1)c1ccc(C(=O)Nc2ccccc2-c2ccccc2)s1` [Compound 77], the IC50 was in the range of 1 to 40 µM.
In the case of `CN(C(=O)c1ccc(C(=O)Nc2ccc(-n3cncn3)cc2)s1)c1ccccc1` [Compound 96], the IC50 was ≥ 40 µM.
`CN(C)CCCNC(=O)c1ccc(C(=O)Nc2ccc(-n3cncn3)cc2)s1` [Compound 140]: the IC50 is ≥ 40 µM.
Turning to `O=C(Nc1ccc(-n2cncn2)cc1)c1ccc(C(=O)N[C@@H]2CC3CCC2C3)s1` (stereo partly shown) [Compound 104], the IC50 is ≥ 40 µM.
Next, `CN(C)C(=O)c1ccc(C(=O)Nc2ccc(-n3cncn3)c(F)c2)o1` [Compound 216]: ≥ 40 µM; `Cc1cc(CN2CCN(C)CC2)ccc1NC(=O)c1ccc(C(=O)Nc2ccc(-n3cncn3)cc2)s1` [Compound 32]: ≤ 1 µM.
As to `O=C(Nc1ccc(-n2cncn2)cc1)c1ccc(C(=O)Nc2cc(-c3ccco3)n[nH]2)s1` [Compound 197], the IC50 was ≥ 40 µM.
For `Cc1cc(OCCN2CCN(C)CC2)ccc1NC(=O)c1ccc(C(=O)Nc2ccc(-n3cncn3)cc2)s1` [Compound 12], the IC50 is ≤ 1 µM.
As to `COc1ccc(NC(=O)c2ccc(C(=O)Nc3ccc4sc(SC)nc4c3)s2)c(C)c1` [Compound 174], the IC50 was ≥ 40 µM.
As for `COc1ccc(C(=O)Nc2ccc(C(=O)Nc3ccc(-n4cncn4)cc3)s2)cc1` [Compound 42], the figure is 1 to 40 µM.
Regarding `O=C(Nc1ccc(-n2cncn2)cc1)c1ccc(C(=O)N2CCCCC2)s1` [Compound 84], the IC50 was ≥ 40 µM.
With `CC(C)[C@@H](CO)NC(=O)c1ccc(C(=O)Nc2ccc(-n3cncn3)cc2)s1` [Compound 153], the IC50 was ≥ 40 µM.
`O=C(Nc1ccc(-n2cncn2)c(F)c1)c1ccc(C(=O)Nc2ccccc2OC2CCCCC2)s1` [Compound 203]: the IC50 is ≥ 40 µM.
For `O=C(NCc1ccncc1)c1ccc(C(=O)Nc2ccc(-n3cncn3)cc2)s1` [Compound 98], the IC50 was ≥ 40 µM.
As to `COc1ccc(NCc2ccc(C(=O)Nc3ccc(-n4cncn4)cc3)o2)c(C)c1` [Compound 198], the IC50 is ≥ 40 µM.
With `COc1ccc(C(=O)Nc2ccc(C(=O)Nc3ccc(-n4cncn4)cc3)s2)c(C)c1` [Compound 2], the IC50 was ≤ 1 µM.
`CN(C)CCNC(=O)c1ccc(C(=O)Nc2ccc(-n3cncn3)cc2)s1` [Compound 87]: the IC50 was ≥ 40 µM.
Regarding `O=C(Nc1ccc(-n2cncn2)c(F)c1)c1ccc(C(=O)Nc2ccccc2Oc2ccccc2)s1` [Compound 199], the IC50 was ≥ 40 µM.
Next, `Cc1cc(N2CCNCC2)ccc1NC(=O)c1ccc(C(=O)Nc2ccc(-n3cncn3)cc2)s1` [Compound 30]: ≤ 1 µM.
Turning to `CCOc1ccccc1NC(=O)c1ccc(C(=O)Nc2ccc(-n3cncn3)c(F)c2)s1` [Compound 201], the IC50 was ≥ 40 µM.
Take `Cc1cc(CN2CCOCC2)ccc1NC(=O)c1ccc(C(=O)Nc2ccc(-n3cncn3)cc2)s1` [Compound 16]: the IC50 was ≤ 1 µM.
As for `O=C(Nc1ccc(-n2cncn2)cc1)c1ccc(C(=O)Nc2cccc(-c3cnco3)c2)s1` [Compound 162], the figure is ≥ 40 µM.
Compound `COc1ccc(NC(=O)c2ccc(C(=O)N3CCC(c4ccccn4)C3)s2)c(C)c1` (stereo not shown) [Compound 71] returned a concentration for half-maximal inhibition (IC50) of 1 to 40 µM.
Take `COc1ccc(NC(=O)c2ccc(C(=O)Nc3ccc(-n4cncn4)cc3)o2)c(C)c1` [Compound 26]: the IC50 was ≤ 1 µM.
On to `COc1ccc(NC(=O)c2ccc(C(=O)Nc3ccc(N4CCOCC4)cc3)s2)c(C)c1` [Compound 120], for which the IC50 was ≥ 40 µM.
Next, `COc1cccc(C2CCN(C(=O)c3ccc(C(=O)Nc4ccc(-n5cncn5)cc4)s3)C2)c1` (stereo not shown) [Compound 119]: ≥ 40 µM.
In the case of `Cc1cc(CN(C)C)ccc1NC(=O)c1ccc(C(=O)Nc2ccc(-n3cncn3)cc2)s1` [Compound 47], the IC50 lay in the range of 1 to 40 µM.
As to `COc1ccc(C(=O)Nc2ccc(C(=O)N3CCC(c4ccncc4)C3)o2)c(C)c1` (stereo not shown) [Compound 191], the IC50 is ≥ 40 µM.
Turning to `COc1ccc(NC(=O)c2ccc(C(=O)N3CCC(Oc4cnccn4)CC3)s2)c(C)c1` [Compound 41], the IC50 was in the range of 1 to 40 µM.
As for `CN(C(=O)c1ccc(C(=O)Nc2ccc(-n3cncn3)c(F)c2)o1)C1CCCCC1` [Compound 213], the figure is ≥ 40 µM; as for `O=C(Nc1ccc(-n2cncn2)cc1)c1ccc(C(=O)Nc2ccccc2Cl)s1` [Compound 165], ≥ 40 µM.

As a reminder, the IC50 is the point on the concentration scale where inhibition reaches its midpoint. A higher IC50 goes with lower potency.
